Consider 33 compounds from US20240246918A1, “COMPOUNDS AND COMPOSITIONS AS EIF4E INHIBITORS AND THE USES THEREOF” (Ribometrix, Inc., priority 2022, published 2024).

Structures are written as SMILES. A value given as a limit tells only on which side of the number the result lay.

One assay has as its target T1, human eIF4E protein (Homo sapiens, UniProt P06730).
T1 construct: purchased Novus NBP-45314
In words: Biochemical competitive binding assay (TR-FRET competition, EDA-m7GDP-ATTO-647N probe). The conditions noted are these: read-out: hEIF4E TR-FRET IC50. Summed up: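 IC50 values come from 4-parameter fits of the normalized 665/620 nm TR-FRET ratio. Compound was first incubated 15 min with 4 nM recombinant His-eIF4E bound to 2.5 nM Eu-anti-His antibody, then 15 min with 5 nM m7GDP-ATTO-647N tracer, in pH 7.5 HEPES buffer with 100 mM KCl, Tween-20 and BSA.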
For orientation: In TR-FRET formats the signal depends on donor and acceptor labels being close together.

In assay [1] the test system is COLO 205 colorectal tumor cells. Description: Tumor cell viability inhibition assay (CellTiter-Glo 2.0, 72 hours). It is filed as cell-based. The following applies: COLO 205 cell viability. The procedure, abridged: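 IC50 derived by 4-parameter fitting after normalizing luminescence to DMSO and max-inhibition wells. Compounds tested as 11 concentrations in 4-fold steps on COLO 205 cells seeded at 1500 per well in RPMI-1640/10% FBS; ATP content measured with CellTiter-Glo 2.0 after 72 h.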
For orientation: ATP-based viability assays read luminescence as a measure of living cells.

T1 sequence (P06730 whole entry): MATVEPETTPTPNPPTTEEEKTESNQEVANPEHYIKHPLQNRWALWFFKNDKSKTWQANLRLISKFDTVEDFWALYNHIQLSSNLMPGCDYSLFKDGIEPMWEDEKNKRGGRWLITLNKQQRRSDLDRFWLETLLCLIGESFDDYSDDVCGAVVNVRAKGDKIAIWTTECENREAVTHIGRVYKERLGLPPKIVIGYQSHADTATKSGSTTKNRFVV

For the compound `Cc1cc(-c2cc(Cl)ccc2OCCn2c(C)nc3c(c2=O)C[C@H](N2CCC4(CC2)CC(F)(F)CO4)CC3)c2scc(C(=O)O)c2n1` (single isomer, unassigned) [Compound 489], the IC50 at human eIF4E protein was less than 0.1 µM; in assay [1] (Homo sapiens, COLO 205, 72 h), less than 5 µM.

As to `Cc1cc(-c2cc(Cl)ccc2OCCn2c(C)nc3c(c2=O)C[C@@H](N2CCC[C@H](C(F)(F)F)C2)CC3)c2scc(C(=O)O)c2n1` (single isomer, unassigned) [Compound 384], the IC50 is less than 0.1 µM on human eIF4E protein and less than 5 µM in assay [1] (Homo sapiens, COLO 205, 72 h).

`Cc1cc(-c2cc(Cl)ccc2OCCn2c(C)nc3c(c2=O)CC(N2CC4CC(C2)C4(F)F)CC3)c2scc(C(=O)O)c2n1` (single isomer, unassigned) [Compound 375]: the IC50 at human eIF4E protein was less than 0.1 µM; in assay [1], less than 5 µM.

For the compound `COC1CCN(C2(C)CCc3nc(C)n(CCOc4ccc(Cl)cc4-c4cc(C)nc5c(C(=O)O)csc45)c(=O)c3C2)CC1` (single isomer, unassigned) [Compound 496], the IC50 on human eIF4E protein was less than 0.1 µM; in assay [1], less than 5 µM.

As to `Cc1cc(-c2cc(Cl)ccc2OCCn2c(C)nc3c(c2=O)C[C@H](N2CCC(c4nc(C(F)(F)F)cs4)CC2)CC3)c2scc(C(=O)O)c2n1` (single isomer, unassigned) [Compound 577], the IC50 at human eIF4E protein was less than 0.1 µM; in assay [1] (Homo sapiens, COLO 205, 72 h), less than 5 µM.

Turning to `Cc1cc(-c2cc(Cl)ccc2OCCn2c(C)nc3c(c2=O)C[C@H](N2CCC(OC(F)(F)F)CC2)[C@@H]2C[C@H]32)c2scc(C(=O)O)c2n1` (single isomer, unassigned) [Compound 597], the IC50 was less than 0.1 µM at human eIF4E protein and less than 5 µM in assay [1] (Homo sapiens, COLO 205, 72 h).

For the compound `Cc1cc(-c2cc(Cl)ccc2OCCn2c(C)nc3c(c2=O)C[C@@H](N2CCC[C@@H](C(F)F)C2)CC3)c2scc(C(=O)O)c2n1` (single isomer, unassigned) [Compound 100], the IC50 on human eIF4E protein was less than 0.1 µM; in assay [1] (Homo sapiens, COLO 205, 72 h), less than 5 µM.

With `Cc1cc(-c2cc(Cl)ccc2OCCn2c(C)nc3c(c2=O)C[C@H](N2CCC(COC(F)(F)F)CC2)CC32CC2)c2scc(C(=O)O)c2n1` (single isomer, unassigned) [Compound 560], the IC50 was less than 0.1 µM at human eIF4E protein and less than 5 µM in assay [1] (Homo sapiens, COLO 205, 72 h).

For the compound `COc1cc(CN(CC(F)F)C2CCc3nc(C)n(CCOc4ccc(Cl)cc4-c4cc(C)nc5c(C(=O)O)csc45)c(=O)c3C2)ccn1` (stereo not drawn) [Compound 112, 7-[2-[2-[6-[2,2-bis(fluorenyl)ethyl-[(2-methoxy-4-pyridyl)methyl]amino]-2-methyl-4-oxidanylidene-5,6,7,8-tetrahydroquinazolin-3-yl]ethoxy]-5-chloranyl-phenyl]-5-methyl-thieno[3,2-b]pyridine-3-carboxylic acid], the IC50 on human eIF4E protein was less than 0.1 µM; in assay [1] (Homo sapiens, COLO 205, 72 h), 5 to 20 µM.

As to `Cc1cc(-c2cc(Cl)ccc2OCCn2c(C)nc3c(c2=O)C[C@@](C)(N2C[C@@H]4CC(F)(F)C[C@@H]4C2)CC3)c2scc(C(=O)O)c2n1` (stereo in doubt) [Compound 567], the IC50 at human eIF4E protein is less than 0.1 µM; in assay [1] (Homo sapiens, COLO 205, 72 h), less than 5 µM.

With `Cc1cc(-c2cc(Cl)ccc2OCCn2c(C)nc3c(c2=O)C[C@H](N2CC[C@H](OC(F)(F)F)C2)CC3)c2scc(C(=O)O)c2n1` (single isomer, unassigned) [Compound 386], the IC50 on human eIF4E protein was less than 0.1 µM; in assay [1] (Homo sapiens, COLO 205, 72 h), less than 5 µM.

As for `Cc1cc(-c2cc(Cl)ccc2OCCn2c(C)nc3c(c2=O)C[C@H](N2CC[C@H](OC(F)(F)F)C(F)(F)C2)CC3)c2scc(C(=O)O)c2n1` (single isomer, unassigned) [Compound 404], the IC50 on human eIF4E protein is less than 0.1 µM; in assay [1] (Homo sapiens, COLO 205, 72 h) it was 5 to 20 µM.

Consider `Cc1cc(-c2cc(Cl)ccc2OCCn2c(C)nc3c(c2=O)C[C@H](N2CCO[C@H](CC(F)(F)F)C2)CC3)c2scc(C(=O)O)c2n1` (single isomer, unassigned) [Compound 525], for which the IC50 at human eIF4E protein is less than 0.1 µM; in assay [1] (Homo sapiens, COLO 205, 72 h) it was less than 5 µM.

As to `Cc1cc(-c2cc(Cl)ccc2OCCn2c(C)nc3c(c2=O)CC(N2CCC4(CN(CC(F)(F)F)CC(F)(F)C4)C2)CC3)c2scc(C(=O)O)c2n1` (single isomer, unassigned) [Compound 512], the IC50 was less than 0.1 µM at human eIF4E protein and less than 5 µM in assay [1].

As to `Cc1cc(-c2cc(Cl)ccc2OCCn2c(C)nc3c(c2=O)C[C@H](N2CCC(OC(F)F)CC2)CC3)c2scc(C(=O)O)c2n1` (single isomer, unassigned) [Compound 385], the IC50 at human eIF4E protein is less than 0.1 µM; in assay [1] (Homo sapiens, COLO 205, 72 h), less than 5 µM.

In the case of `Cc1cc(-c2cc(Cl)ccc2OCCn2c(C)nc3c(c2=O)CC(N(C)Cc2ccc(=O)[nH]c2)CC3)c2scc(C(=O)O)c2n1` (single isomer, unassigned) [Compound 236], the IC50 at human eIF4E protein was less than 0.1 µM; in assay [1], greater than 20 µM.

For `Cc1cc(-c2cc(Cl)ccc2OCCn2c(C)nc3c(c2=O)CC(N2CCC4(CCN(CC(F)(F)F)C4)C2)CC3)c2scc(C(=O)O)c2n1` (single isomer, unassigned) [Compound 506], the IC50 was less than 0.1 µM at human eIF4E protein and less than 5 µM in assay [1].

Consider `Cc1cc(-c2cc(Cl)ccc2OCCn2c(C)nc3c(c2=O)C[C@H](N2CCC4(CC2)NC(=O)NC4=O)CC3)c2scc(C(=O)O)c2n1` (single isomer, unassigned) [Compound 430], for which the IC50 is less than 0.1 µM on human eIF4E protein and less than 5 µM in assay [1] (Homo sapiens, COLO 205, 72 h).

Regarding `Cc1cc(-c2cc(Cl)ccc2OCCn2c(C)nc3c(c2=O)C[C@@H](N2CCC(CC(F)(F)F)CC2)CC3)c2scc(C(=O)O)c2n1` (single isomer, unassigned) [Compound 106], the concentration for half-maximal inhibition (IC50) was less than 0.1 µM at human eIF4E protein and less than 5 µM in assay [1] (Homo sapiens, COLO 205, 72 h).

Consider `Cc1cc(-c2cc(Cl)ccc2OCCn2c(C)nc3c(c2=O)C[C@H](N2CCC(c4noc5ccc(F)cc45)CC2)CC3)c2scc(C(=O)O)c2n1` (single isomer, unassigned) [Compound 488], for which the IC50 was less than 0.1 µM on human eIF4E protein and less than 5 µM in assay [1] (Homo sapiens, COLO 205, 72 h).

Regarding `Cc1cc(-c2cc(Cl)ccc2OCCn2c(C)nc3c(c2=O)C[C@@H](N2CCC4(CC2)NC(=O)NC4=O)CC3)c2scc(C(=O)O)c2n1` (single isomer, unassigned) [Compound 431], the IC50 at human eIF4E protein was less than 0.1 µM; in assay [1] (Homo sapiens, COLO 205, 72 h), less than 5 µM.

In the case of `Cc1cc(-c2cc(Cl)ccc2OCCn2c(C)nc3c(c2=O)C[C@@H](N2C[C@@H]4CC(F)(F)C[C@@H]4C2)CC32CC2)c2scc(C(=O)O)c2n1` (single isomer, unassigned) [Compound 619], the IC50 at human eIF4E protein is less than 0.1 µM; in assay [1] (Homo sapiens, COLO 205, 72 h) it was less than 5 µM.

As for `CO[C@@H]1CCN([C@H]2CCc3nc(C)n(CCOc4ccc(Cl)cc4-c4cc(C)nc5c(C(=O)O)csc45)c(=O)c3C2)CC1(C)C` (single isomer, unassigned) [Compound 377], the IC50 is less than 0.1 µM on human eIF4E protein and less than 5 µM in assay [1] (Homo sapiens, COLO 205, 72 h).

Turning to `Cc1cc(-c2cc(Cl)ccc2OCCn2c(C)nc3c(c2=O)C[C@@H](N2CCC(c4cnn(C)c4)CC2)CC3)c2scc(C(=O)O)c2n1` (single isomer, unassigned) [Compound 427], the IC50 on human eIF4E protein is less than 0.1 µM; in assay [1] (Homo sapiens, COLO 205, 72 h), less than 5 µM.

For the compound `Cc1cc(-c2cc(Cl)ccc2OCCn2c(C)nc3c(c2=O)C[C@H](N2CCCC(F)(F)CC2)CC3)c2scc(C(=O)O)c2n1` (single isomer, unassigned) [Compound 401], the 50% inhibitory concentration (IC50) was less than 0.1 µM on human eIF4E protein and less than 5 µM in assay [1] (Homo sapiens, COLO 205, 72 h).

Regarding `Cc1cc(-c2cc(Cl)ccc2OCCn2c(C)nc3c(c2=O)C[C@H](N2CCO[C@@H](COC(F)(F)F)C2)CC3)c2scc(C(=O)O)c2n1` (single isomer, unassigned) [Compound 477], the IC50 on human eIF4E protein is less than 0.1 µM; in assay [1] (Homo sapiens, COLO 205, 72 h) it was less than 5 µM.

In the case of `Cc1cc(-c2cc(Cl)ccc2OCCn2c(C)nc3c(c2=O)C[C@H](N2CC[C@@H](OC(F)(F)F)C(C)(C)C2)CC3)c2scc(C(=O)O)c2n1` (single isomer, unassigned) [Compound 395], the concentration for half-maximal inhibition (IC50) is less than 0.1 µM at human eIF4E protein and 5 to 20 µM in assay [1] (Homo sapiens, COLO 205, 72 h).

Take `Cc1cc(-c2cc(Cl)ccc2OCCn2c(C)nc3c(c2=O)C[C@@H](NC24CC5CC(CC(C5)C2)C4)CC3)c2scc(C(=O)O)c2n1` (single isomer, unassigned) [Compound 413]: the IC50 on human eIF4E protein was less than 0.1 µM; in assay [1] (Homo sapiens, COLO 205, 72 h) it was 5 to 20 µM.

With `Cc1cc(-c2cc(Cl)ccc2OCCn2c(C)nc3c(c2=O)C[C@@H](N2CC4CCC(C2)C4OC(F)(F)F)CC3)c2scc(C(=O)O)c2n1` (single isomer, unassigned) [Compound 495], the IC50 at human eIF4E protein is less than 0.1 µM; in assay [1] (Homo sapiens, COLO 205, 72 h), less than 5 µM.

Regarding `Cc1cc(-c2cc(Cl)ccc2OCCn2c(C)nc3c(c2=O)C[C@H](N2CC4(CCC(F)(F)CC4)C2)CC3)c2scc(C(=O)O)c2n1` (single isomer, unassigned) [Compound 131], the IC50 on human eIF4E protein was less than 0.1 µM; in assay [1] (Homo sapiens, COLO 205, 72 h) it was less than 5 µM.

Take `Cc1nc2c(c(=O)n1CC#Cc1ccc(Cl)cc1-c1ccnc3c(C(=O)NS(C)(=O)=O)csc13)CC(N1CCC(OC(F)(F)F)CC1)CC2` (single isomer, unassigned) [Compound 601]: the half-maximal inhibitory concentration (IC50) was less than 0.1 µM at human eIF4E protein and less than 5 µM in assay [1].

Consider `Cc1cc(-c2cc(Cl)ccc2OCCn2c(C)nc3c(c2=O)C[C@H](N2CCCC[C@@H]2c2nccs2)CC3)c2scc(C(=O)O)c2n1` (single isomer, unassigned) [Compound 547], for which the concentration for half-maximal inhibition (IC50) is less than 0.1 µM at human eIF4E protein and less than 5 µM in assay [1] (Homo sapiens, COLO 205, 72 h).

In the case of `Cc1cc(-c2cc(Cl)ccc2OCCn2c(C)nc3c(c2=O)C[C@H](N2CC[C@@H](OC(F)(F)F)C(F)(F)C2)CC3)c2scc(C(=O)O)c2n1` (single isomer, unassigned) [Compound 403], the half-maximal inhibitory concentration (IC50) on human eIF4E protein is less than 0.1 µM; in assay [1] (Homo sapiens, COLO 205, 72 h) it was 5 to 20 µM.

As a reminder, the IC50 is the concentration that gives 50% inhibition.
